Results published in patent US9113629B2, “4-amino-6-(4-substituted-phenyl)-picolinates and 6-amino-2-(4-substituted-phenyl)-pyrimidine-4-carboxylates and their use as herbicides” (DOW AGROSCIENCES LLC, priority 2013, dated 2015).
Where two headings read alike, the source gives them in different places.

How the values were obtained:
[1] = test system: Key Broadleaf Weed and Crop Species; assay: Post-emergent Test II herbicidal activity (Table 5); format: in vivo; settings: post-emergence, 336 h, 14 days after application; for pest or weed control at 70 g/ha: application rate 70 g ai/ha; for pest or weed control at 140 g/ha: application rate 140 g ai/ha
Method in brief: (§1)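 Plants grown in Metro-Mix 360 (pH 6.0–6.8) in a greenhouse (~15 h photoperiod, 23–29 °C day) to first or second true leaf stage, then sprayed with compound in acetone/DMSO/aqueous crop-oil-surfactant carrier at 187 L/ha by track sprayer. Injury visually scored 0–100% versus untreated plants after 14 d.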

[2] = test system: Key Grass and Sedge Weeds as well as Grass Crops; assay: Post-emergent Test II herbicidal activity (Table 6); format: in vivo; settings: post-emergence, 336 h
Method in brief: as §1

[3] = ABUTH: velvetleaf (Abutilon theophrasti), read-out: Visual Growth Reduction (%) 14 Days After Application, ABUTH
[4] = AMARE: redroot pigweed (Amaranthus retroflexus), read-out: Visual Growth Reduction (%) 14 Days After Application, AMARE
[5] = BRSNN: oilseed-rape, canola (Brassica napus), read-out: Visual Growth Reduction (%) 14 Days After Application, BRSNN
[6] = CHEAL: lambsquarters (Chenopodium album), read-out: Visual Growth Reduction (%) 14 Days After Application, CHEAL
[7] = EPHHL: wild poinsettia (Euphorbia heterophylla), read-out: Visual Growth Reduction (%) 14 Days After Application, EPHHL
[8] = HELAN: sunflower (Helianthus annuus), read-out: Visual Growth Reduction (%) 14 Days After Application, HELAN
[9] = VIOTR: wild pansy (Viola tricolor), read-out: Visual Growth Reduction (%) 14 Days After Application, VIOTR
[10] = CYPES: yellow nutsedge (Cyperus esculentus), 70 g ai/ha, read-out: Visual Growth Reduction (%) 14 Days After Application, CYPES
[11] = CYPES: yellow nutsedge (Cyperus esculentus), 140 g ai/ha, read-out: Visual Growth Reduction (%) 14 Days After Application, CYPES
[12] = DIGSA: crabgrass (Digitaria sanguinalis), 70 g ai/ha, read-out: Visual Growth Reduction (%) 14 Days After Application, DIGSA
[13] = DIGSA: crabgrass (Digitaria sanguinalis), 140 g ai/ha, read-out: Visual Growth Reduction (%) 14 Days After Application, DIGSA
[14] = ECHCG: barnyardgrass (Echinochloa crus-galli), 70 g ai/ha, read-out: Visual Growth Reduction (%) 14 Days After Application, ECHCG
[15] = ECHCG: barnyardgrass (Echinochloa crus-galli), 140 g ai/ha, read-out: Visual Growth Reduction (%) 14 Days After Application, ECHCG
[16] = ORYSA: rice (Oryza sativa), crop, 70 g ai/ha, read-out: Visual Growth Reduction (%) 14 Days After Application, ORYSA
[17] = ORYSA: rice (Oryza sativa), crop, 140 g ai/ha, read-out: Visual Growth Reduction (%) 14 Days After Application, ORYSA
[18] = SETFA: giant foxtail (Setaria faberi), 70 g ai/ha, read-out: Visual Growth Reduction (%) 14 Days After Application, SETFA
[19] = SETFA: giant foxtail (Setaria faberi), 140 g ai/ha, read-out: Visual Growth Reduction (%) 14 Days After Application, SETFA
[20] = SORVU: grain sorghum (Sorghum vulgare), 70 g ai/ha, read-out: Visual Growth Reduction (%) 14 Days After Application, SORVU
[21] = SORVU: grain sorghum (Sorghum vulgare), 140 g ai/ha, read-out: Visual Growth Reduction (%) 14 Days After Application, SORVU
[22] = TRZSS (wheat, Triticum aestivum), crop, 70 g ai/ha, read-out: Visual Growth Reduction (%) 14 Days After Application, TRZSS
[23] = TRZSS (wheat, Triticum aestivum), crop, 140 g ai/ha, read-out: Visual Growth Reduction (%) 14 Days After Application, TRZSS
[24] = ZEAMX: maize, corn (Zea mays), crop, 70 g ai/ha, read-out: Visual Growth Reduction (%) 14 Days After Application, ZEAMX
[25] = ZEAMX: maize, corn (Zea mays), crop, 140 g ai/ha, read-out: Visual Growth Reduction (%) 14 Days After Application, ZEAMX

| melting point | Structure (SMILES) | pest or weed control at 70 g/ha [1, 3] [%] | pest or weed control at 140 g/ha [1, 3] [%] | pest or weed control at 70 g/ha [1, 4] [%] | pest or weed control at 140 g/ha [1, 4] [%] | pest or weed control at 70 g/ha [1, 5] [%] | pest or weed control at 140 g/ha [1, 5] [%] | pest or weed control at 70 g/ha [1, 6] [%] | pest or weed control at 140 g/ha [1, 6] [%] | pest or weed control at 70 g/ha [1, 7] [%] | pest or weed control at 140 g/ha [1, 7] [%] | pest or weed control at 70 g/ha [1, 8] [%] | pest or weed control at 140 g/ha [1, 8] [%] | pest or weed control at 70 g/ha [1, 9] [%] | pest or weed control at 140 g/ha [1, 9] [%] | pest or weed control at 70 g/ha [2, 10] [%] | pest or weed control at 140 g/ha [2, 11] [%] | pest or weed control at 70 g/ha [2, 12] [%] | pest or weed control at 140 g/ha [2, 13] [%] | pest or weed control at 70 g/ha [2, 14] [%] | other results |
| --- | --- | --- | --- | --- | --- | --- | --- | --- | --- | --- | --- | --- | --- | --- | --- | --- | --- | --- | --- | --- | --- |
| 159 to 162 °C | COC(=O)c1nc(-c2ccc(I)cc2F)nc(N)c1OC [Compound 82] | 95 to 100 | 95 to 100 | 95 to 100 | 95 to 100 | 85 to 94 | 85 to 94 | 85 to 94 | 95 to 100 | 95 to 100 | 95 to 100 | 95 to 100 | 95 to 100 | 60 to 74 | 75 to 84 | 95 to 100 | 95 to 100 | 0 to 29 | 0 to 29 | 45 to 59 | pest or weed control at 140 g/ha [2, 15]: 85 to 94%; pest or weed control at 70 g/ha [2, 16]: 0 to 29%; pest or weed control at 140 g/ha [2, 17]: 0 to 29%; pest or weed control at 70 g/ha [2, 18]: 0 to 29%; pest or weed control at 140 g/ha [2, 19]: 0 to 29%; pest or weed control at 70 g/ha [2, 20]: 0 to 29%; pest or weed control at 140 g/ha [2, 21]: 45 to 59%; pest or weed control at 70 g/ha [2, 22]: 30 to 44%; pest or weed control at 140 g/ha [2, 23]: 30 to 44%; pest or weed control at 70 g/ha [2, 24]: 95 to 100%; pest or weed control at 140 g/ha [2, 25]: 95 to 100% |
| 288 to 293 °C (dec.) | Nc1cc(-c2ccc(I)c(F)c2F)nc(C(=O)O)c1Cl [Compound 38] | 95 to 100 | 95 to 100 | 85 to 94 | 95 to 100 | 95 to 100 | 95 to 100 | 85 to 94 | 95 to 100 | 95 to 100 | 95 to 100 | 75 to 84 | 85 to 94 | 95 to 100 | 95 to 100 | – | – | – | – | – | pest or weed control at 70 g/ha ([2]; Triticum aestivum, TRZSS (wheat), application rate 70 g ai/ha, read-out: Visual Growth Reduction (%) 14 Days After Application, TRZSS): 60 to 74%; pest or weed control at 140 g/ha ([2]; Triticum aestivum, TRZSS (wheat), application rate 140 g ai/ha, read-out: Visual Growth Reduction (%) 14 Days After Application, TRZSS): 60 to 74%; pest or weed control at 70 g/ha ([2]; CYPES: yellow nutsedge (Cyperus esculentus), application rate 70 g ai/ha, read-out: Visual Growth Reduction (%) 14 Days After Application, CYPES): 95 to 100%; pest or weed control at 140 g/ha ([2]; CYPES: yellow nutsedge (Cyperus esculentus), application rate 140 g ai/ha, read-out: Visual Growth Reduction (%) 14 Days After Application, CYPES): 95 to 100%; pest or weed control at 70 g/ha ([2]; DIGSA: crabgrass (Digitaria sanguinalis), application rate 70 g ai/ha, read-out: Visual Growth Reduction (%) 14 Days After Application, DIGSA): 75 to 84%; pest or weed control at 140 g/ha ([2]; DIGSA: crabgrass (Digitaria sanguinalis), application rate 140 g ai/ha, read-out: Visual Growth Reduction (%) 14 Days After Application, DIGSA): 75 to 84%; pest or weed control at 70 g/ha ([2]; ECHCG: barnyardgrass (Echinochloa crus-galli), application rate 70 g ai/ha, read-out: Visual Growth Reduction (%) 14 Days After Application, ECHCG): 95 to 100%; pest or weed control at 140 g/ha ([2]; ECHCG: barnyardgrass (Echinochloa crus-galli), application rate 140 g ai/ha, read-out: Visual Growth Reduction (%) 14 Days After Application, ECHCG): 95 to 100%; pest or weed control at 70 g/ha ([2]; ORYSA: rice (Oryza sativa), application rate 70 g ai/ha, read-out: Visual Growth Reduction (%) 14 Days After Application, ORYSA): 0 to 29%; pest or weed control at 140 g/ha ([2]; ORYSA: rice (Oryza sativa), application rate 140 g ai/ha, read-out: Visual Growth Reduction (%) 14 Days After Application, ORYSA): 0 to 29%; pest or weed control at 70 g/ha ([2]; SETFA: giant foxtail (Setaria faberi), application rate 70 g ai/ha, read-out: Visual Growth Reduction (%) 14 Days After Application, SETFA): 95 to 100%; pest or weed control at 140 g/ha ([2]; SETFA: giant foxtail (Setaria faberi), application rate 140 g ai/ha, read-out: Visual Growth Reduction (%) 14 Days After Application, SETFA): 95 to 100%; pest or weed control at 70 g/ha ([2]; SORVU: grain sorghum (Sorghum vulgare), application rate 70 g ai/ha, read-out: Visual Growth Reduction (%) 14 Days After Application, SORVU): 85 to 94%; pest or weed control at 140 g/ha ([2]; SORVU: grain sorghum (Sorghum vulgare), application rate 140 g ai/ha, read-out: Visual Growth Reduction (%) 14 Days After Application, SORVU): 85 to 94%; pest or weed control at 70 g/ha ([2]; ZEAMX: maize, corn (Zea mays), application rate 70 g ai/ha, read-out: Visual Growth Reduction (%) 14 Days After Application, ZEAMX): 85 to 94%; pest or weed control at 140 g/ha ([2]; ZEAMX: maize, corn (Zea mays), application rate 140 g ai/ha, read-out: Visual Growth Reduction (%) 14 Days After Application, ZEAMX): 95 to 100% |
| 155 to 157 °C | Nc1c(F)c(-c2ccc(I)c(F)c2F)nc(C(=O)O)c1Cl [Compound 141, 4-amino-3-chloro-6-(2,3-difluoro-4-iodophenyl)-5-fluoropicolinic acid] | 85 to 94 | 85 to 94 | 95 to 100 | 95 to 100 | 95 to 100 | 95 to 100 | 85 to 94 | 85 to 94 | 95 to 100 | 95 to 100 | 95 to 100 | 95 to 100 | 95 to 100 | 95 to 100 | 0 to 29 | 95 to 100 | 75 to 84 | 75 to 84 | 85 to 94 | pest or weed control at 140 g/ha [2, 15]: 95 to 100%; pest or weed control at 70 g/ha [2, 16]: 0 to 29%; pest or weed control at 140 g/ha [2, 17]: 0 to 29%; pest or weed control at 70 g/ha [2, 18]: 75 to 84%; pest or weed control at 140 g/ha [2, 19]: 95 to 100%; pest or weed control at 70 g/ha [2, 20]: 85 to 94%; pest or weed control at 140 g/ha [2, 21]: 85 to 94%; pest or weed control at 70 g/ha [2, 22]: 60 to 74%; pest or weed control at 140 g/ha [2, 23]: 60 to 74%; pest or weed control at 70 g/ha [2, 24]: 95 to 100%; pest or weed control at 140 g/ha [2, 25]: 95 to 100% |
